Assay results as given in patent publication US20110105491A1, “THIAZOLIDINE COMPOUNDS AS OREXIN RECEPTOR ANTAGONISTS” (priority 2008, published 2011).
Where two headings read alike, the source gives them in different places.

Experiments:
human orexin-1 receptor = target: T1, human orexin-1 receptor (Homo sapiens, UniProt O43613); assay: FLIPR calcium assay of orexin receptor antagonistic activity, CHO cells expressing human orexin-1 receptor; type: cell-based; settings: 3 nM orexin-A as agonist; not normalized; *2/*3 = geometric mean of n = 2/3 values; read-out: OX1 IC50
T1 construct: expressed in transfected cells; host or cells: Chinese hamster ovary (CHO) cells
T1 sequence (O43613 1-425): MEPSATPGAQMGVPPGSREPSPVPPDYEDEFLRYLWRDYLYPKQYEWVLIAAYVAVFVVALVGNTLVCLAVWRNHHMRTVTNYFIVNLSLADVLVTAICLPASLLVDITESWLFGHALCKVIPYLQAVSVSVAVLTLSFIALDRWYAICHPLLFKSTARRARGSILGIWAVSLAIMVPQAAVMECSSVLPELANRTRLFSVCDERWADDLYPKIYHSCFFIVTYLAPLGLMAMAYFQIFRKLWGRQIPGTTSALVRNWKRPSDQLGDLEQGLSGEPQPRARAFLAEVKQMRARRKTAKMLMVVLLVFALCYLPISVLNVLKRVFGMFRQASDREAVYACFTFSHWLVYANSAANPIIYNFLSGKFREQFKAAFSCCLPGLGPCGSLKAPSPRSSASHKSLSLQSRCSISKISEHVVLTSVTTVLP
Procedure: (§1) The orexin receptor antagonistic activity of the compounds of formula (I) is determined in accordance with the following experimental method.
(§2) Chinese hamster ovary (CHO) cells expressing the human orexin-1 receptor and the human orexin-2 receptor, respectively, are grown in culture medium (Ham F-12 with L-Glutamine) containing 300 μg/ml G418, […] penicillin, 100 μg/ml streptomycin and 10% heat inactivated fetal calf serum (FCS). The cells are seeded at 20′000 cells/well into 384-well black clear bottom sterile plates (Greiner). The seeded plates are incubated overnight at 37° C. in 5% CO2.
(§3) Human orexin-A as an agonist is prepared as 1 mM stock solution in MeOH:water (1:1), diluted in HBSS containing 0.1% bovine serum albumin (BSA), NaHCO3: 0.375 g/l and 20 mM HEPES for use in the assay at a final concentration of 3 nM.
(§4) Antagonists are prepared as 10 mM stock solution in DMSO, then diluted in 384-well plates using DMSO followed by a transfer of the dilutions into in HBSS containing 0.1% bovine serum albumin (BSA), NaHCO3: 0.375 g/l and 20 mM HEPES. On the day of the assay, 50 μl of staining buffer (HBSS containing 1% FCS, 20 mM HEPES, NaHCO3: 0.375 g/l, 5 mM probenecid (Sigma) and 3 μM of the fluorescent calcium indicator fluo-4 AM (1 mM stock solution in DMSO, containing 10% pluronic) is added to each well. The 384-well cell-plates are incubated for 50 min at 37° C. in 5% CO2 followed by equilibration at rt for 30-120 min before measurement.
(§5) Within the Fluorescent Imaging Plate Reader (FLIPR Tetra, Molecular Devices), antagonists are added to the plate in a volume of 10 μl/well, incubated for 10 min and finally […] of agonist is added. Fluorescence is measured for each well at 1 second intervals, and the height of each fluorescence peak is compared to the height of the fluorescence peak induced by 3 nM orexin-A with vehicle in place of antagonist. For each antagonist, the IC50 value (the concentration of compound needed to inhibit 50% of the agonistic response) is determined and may be normalized using the obtained IC50 value of a on-plate reference compound (normalized values in Table 1 are indicated by an asterisk *). Optimized conditions were achieved by adjustment of pipetting speed and cell splitting regime. The calculated IC50 values of the compounds may fluctuate depending on the daily cellular assay performance. Fluctuations of this kind are known to those skilled in the art.

human orexin-2 receptor = target: T2, human orexin-2 receptor (Homo sapiens, UniProt O43614); assay: FLIPR calcium assay of orexin receptor antagonistic activity, CHO cells expressing human orexin-2 receptor; type: cell-based; settings: read-out: OX2 IC50
T2 construct: expressed in transfected cells; host or cells: Chinese hamster ovary (CHO) cells
T2 sequence (O43614 1-444): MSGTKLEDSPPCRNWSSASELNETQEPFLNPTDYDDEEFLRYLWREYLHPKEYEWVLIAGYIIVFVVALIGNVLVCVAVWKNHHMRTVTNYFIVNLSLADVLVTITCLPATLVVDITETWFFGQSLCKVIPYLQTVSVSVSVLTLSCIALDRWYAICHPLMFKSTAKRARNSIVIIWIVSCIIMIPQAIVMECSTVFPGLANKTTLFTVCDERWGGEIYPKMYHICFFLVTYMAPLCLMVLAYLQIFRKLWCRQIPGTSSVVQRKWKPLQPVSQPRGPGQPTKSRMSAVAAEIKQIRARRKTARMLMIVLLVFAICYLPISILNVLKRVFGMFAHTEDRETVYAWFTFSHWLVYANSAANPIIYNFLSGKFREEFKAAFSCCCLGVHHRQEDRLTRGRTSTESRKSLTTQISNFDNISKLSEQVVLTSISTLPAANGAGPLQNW
Procedure: as §1, §2, §3, §4, §5

[1] = 3 nM orexin-A as agonist, not normalized, *2/*3 = geometric mean of n = 2/3 values

Structure (SMILES)	IC50 (human orexin-1 receptor) [nM]	IC50 (human orexin-2 receptor; [1]) [nM]	IC50 (human orexin-2 receptor) [nM]
Cc1cccc(-c2sc(C)nc2C(=O)N2CCSC2CNC(=O)c2ccn3ccsc23)c1 (racemic) [Example 4, rac-Pyrrolo[2,1-b]thiazole-7-carboxylic acid [3-(2-methyl-5-m-tolyl-thiazole-4-carbonyl)-thiazolidin-2-ylmethyl]-amide]	2	2	
Cc1cccc(-c2sc(C)nc2C(=O)N2CCSC2CNC(=O)c2ccc(C(F)(F)F)c3oc(C)cc23)c1 (racemic) [Example 11, rac-2-Methyl-7-trifluoromethyl-benzofuran-4-carboxylic acid [3-(2-methyl-5-m-tolyl-thiazole-4-carbonyl)-thiazolidin-2-ylmethyl]-amide]	17	63	
Cc1cccc(-c2sc(C)nc2C(=O)N2CCSC2CNC(=O)c2cccc3ocnc23)c1 (racemic) [Example 17, rac-Benzooxazole-4-carboxylic acid [3-(2-methyl-5-m-tolyl-thiazole-4-carbonyl)thiazolidin-2-ylmethyl]-amide]	4	6	
Cc1nc(-c2cccc(Cl)c2)c(C(=O)N2CCSC2CNC(=O)c2cccc3c2CCO3)s1 (racemic) [Example 29, rac-2,3-Dihydro-benzofuran-4-carboxylic acid {3-[4-(3-chloro-phenyl)-2-methyl-thiazole-5-carbonyl]-thiazolidin-2-ylmethyl}-amide]	3	7	
COc1cccc(-c2nc(C)sc2C(=O)N2CCSC2CNC(=O)c2cccc3c2CCO3)c1 (racemic) [Example 32, rac-2,3-Dihydro-benzofuran-4-carboxylic acid {3-[4-(3-methoxy-phenyl)-2-methyl-thiazole-5-carbonyl]-thiazolidin-2-ylmethyl}-amide]	4	5	
Cc1nc(-c2ccc(F)cc2)c(C(=O)N2CCSC2CNC(=O)c2nn(C)c3ccccc23)s1 (racemic) [Example 39, rac-1-Methyl-1H-indazole-3-carboxylic acid {3-[4-(4-fluoro-phenyl)-2-methyl-thiazole-5-carbonyl]-thiazolidin-2-ylmethyl}-amide]	8	86	
Cc1ccc(-c2nc(C)sc2C(=O)N2CCSC2CNC(=O)c2cccc3c2OCCO3)cc1 (racemic) [Example 42, rac-2,3-Dihydro-benzo[1,4]dioxine-5-carboxylic acid [3-(2-methyl-4-p-tolyl-thiazole-5-carbonyl)-thiazolidin-2-ylmethyl]-amide]	10	31	
Cc1nc(-c2cccc(C(F)(F)F)c2)c(C(=O)N2CCSC2CNC(=O)c2nn(C)c3ccccc23)s1 (racemic) [Example 50, rac-1-Methyl-1H-indazole-3-carboxylic acid {3-[2-methyl-4-(3-trifluoromethyl-phenyl)-thiazole-5-carbonyl]-thiazolidin-2-ylmethyl}-amide]	7	43	
Cc1nc(C(=O)N2CCSC2CNC(=O)c2cccc3c2OCCO3)c(-c2ccccc2)s1 (racemic) [Example 57, rac-2,3-Dihydro-benzo[1,4]dioxine-5-carboxylic acid [3-(2-methyl-5-phenyl-thiazole-4-carbonyl)-thiazolidin-2-ylmethyl]-amide]	4	10	
Cc1nc(C(=O)N2CCSC2CNC(=O)c2nn(C)c3ccccc23)c(-c2ccc(C(F)(F)F)cc2)s1 (racemic) [Example 61, rac-1-Methyl-1H-indazole-3-carboxylic acid {3-[2-methyl-5-(4-trifluoromethyl-phenyl)-thiazole-4-carbonyl]-thiazolidin-2-ylmethyl}-amide]	16	28	
Cc1ccc(-c2ccccc2C(=O)N2CCSC2CNC(=O)c2cccc3ncsc23)cc1C (racemic) [Example 72, rac-Benzothiazole-7-carboxylic acid [3-(3′,4′-dimethyl-biphenyl-2-carbonyl)-thiazolidin-2-ylmethyl]-amide]	12	10	
Cc1nc(C(=O)N2CCSC2CNC(=O)c2cccc3c2CCO3)c(-c2ccc(F)cc2)s1 (racemic) [Example 77, rac-2,3-Dihydro-benzofuran-4-carboxylic acid {3-[5-(4-fluoro-phenyl)-2-methyl-thiazole-4-carbonyl]-thiazolidin-2-ylmethyl}-amide]	4	4	
Cc1cccc(-c2oc(C)nc2C(=O)N2CCSC2CNC(=O)c2cccc3ncsc23)c1 (racemic) [Example 83, rac-Benzothiazole-7-carboxylic acid [3-(2-methyl-5-m-tolyl-oxazole-4-carbonyl)-thiazolidin-2-ylmethyl]-amide]	14	11	
Cc1nc(C(=O)N2CCSC2CNC(=O)c2cccc3ncsc23)c(-c2ccccc2)o1 (racemic) [Example 88, rac-Benzothiazole-7-carboxylic acid [3-(2-methyl-5-phenyl-oxazole-4-carbonyl)-thiazolidin-2-ylmethyl]-amide]	4	7	
Cc1nc(C(=O)N2CCSC2CNC(=O)c2cccc3c2OCCO3)c(-c2cccc(F)c2)o1 (racemic) [Example 95, rac-2,3-Dihydro-benzo[1,4]dioxine-5-carboxylic acid {3-[5-(3-fluoro-phenyl)-2-methyl-oxazole-4-carbonyl]-thiazolidin-2-ylmethyl}-amide]	23	68	
COc1cccc(-c2oc(C)nc2C(=O)N2CCSC2CNC(=O)c2cccc3ncsc23)c1 (racemic) [Example 104, rac-Benzothiazole-7-carboxylic acid {3-[5-(3-methoxy-phenyl)-2-methyl-oxazole-4-carbonyl]-thiazolidin-2-ylmethyl}-amide]	7	8	
Cc1cccc(-c2sccc2C(=O)N2CCSC2CNC(=O)c2cccc3ncsc23)c1 (racemic) [Example 109, rac-Benzothiazole-7-carboxylic acid [3-(2-m-tolyl-thiophene-3-carbonyl)-thiazolidin-2-ylmethyl]-amide]	7	10	
O=C(NCC1SCCN1C(=O)c1nc(C2CC2)sc1-c1cccc(F)c1)c1cccc2c1CCO2 (racemic) [Example 116, rac-2,3-Dihydro-benzofuran-4-carboxylic acid {3-[2-cyclopropyl-5-(3-fluoro-phenyl)-thiazole-4-carbonyl]-thiazolidin-2-ylmethyl}-amide]	2	5	
COc1cccc(-c2nccnc2C(=O)N2CCSC2CNC(=O)c2cccc3ncsc23)c1 (racemic) [Example 196, rac-Benzothiazole-7-carboxylic acid {3-[3-(3-methoxy-phenyl)-pyrazine-2-carbonyl]-thiazolidin-2-ylmethyl}-amide]			3
